From ChEMBL document CHEMBL4665863 (Bioorg Med Chem, 2020)
Values after ≈ are worked out from the molar mass of the structure shown.

Columns and labels:
Assay type in all cases: functional
Bacillus pumilus = assay: Antibacterial activity against Bacillus pumilus CMCC63202 incubated for 24 hrs by CLSI-based broth microdilution method
Staphylococcus aureus [1] = assay: Antibacterial activity against penicillin-resistant Staphylococcus aureus incubated for 24 hrs by CLSI-based broth microdilution method
Bacillus subtilis = assay: Antibacterial activity against Bacillus subtilis ATCC9372 incubated for 24 hrs by CLSI-based broth microdilution method
Escherichia coli = assay: Antibacterial activity against Escherichia coli ATCC25922 incubated for 24 hrs by CLSI-based broth microdilution method; settings: ATCC 25922
Pseudomonas aeruginosa = assay: Antibacterial activity against Pseudomonas aeruginosa ATCC27853 incubated for 24 hrs by CLSI-based broth microdilution method
Staphylococcus aureus [2] = assay: Antibacterial activity against methicillin-resistant Staphylococcus aureus ATCC43300 incubated for 24 hrs by CLSI-based broth microdilution method
Staphylococcus aureus [3] = assay: Antibacterial activity against Staphylococcus aureus ATCC25923 incubated for 24 hrs by CLSI-based broth microdilution method

Compound | MIC (Bacillus pumilus) [µg/mL] | MIC (Staphylococcus aureus [1]) [µg/mL] | MIC (Bacillus subtilis) [µg/mL] | MIC (Escherichia coli) [µg/mL] | MIC (Pseudomonas aeruginosa) [µg/mL] | MIC (Staphylococcus aureus [2]) [µg/mL] | MIC (Staphylococcus aureus [3]) [µg/mL]
CCc1ccc(C2CC(COc3ccc(F)c(C(N)=O)c3F)=NO2)cc1 (stereo not drawn) | 16 (≈ 44.4 µM) | > 64 | 4 (≈ 11.1 µM) | > 64 | > 64 | 64 (≈ 178 µM) | 64 (≈ 178 µM)
CCOc1cccc(C2CC(COc3ccc(F)c(C(N)=O)c3F)=NO2)c1 (stereo not drawn) | > 64 | > 64 | 64 (≈ 170 µM) | > 64 | > 64 | > 64 | > 64
COc1ccccc1C1=NOC(COc2ccc(F)c(C(N)=O)c2F)C1 (stereo not drawn) | > 64 | > 64 | > 64 | > 64 | > 64 | > 64 | > 64
Cc1cccc(C2CC(COc3ccc(F)c(C(N)=O)c3F)=NO2)c1 (stereo not drawn) | > 64 | > 64 | 64 (≈ 185 µM) | > 64 | > 64 | > 64 | > 64
NC(=O)c1c(F)ccc(OCC2CC(c3ccc(Br)cc3)=NO2)c1F (stereo not drawn) | 4 (≈ 9.73 µM) | 32 (≈ 77.8 µM) | 2 (≈ 4.86 µM) | > 64 | > 64 | 32 (≈ 77.8 µM) | 32 (≈ 77.8 µM)
CCOc1cccc(C2=NOC(COc3ccc(F)c(C(N)=O)c3F)C2)c1 (stereo not drawn) | 8 (≈ 21.3 µM) | 32 (≈ 85 µM) | 4 (≈ 10.6 µM) | > 64 | > 64 | 32 (≈ 85 µM) | 32 (≈ 85 µM)
NC(=O)c1c(F)ccc(OCC2CC(c3ccc(Cl)c(Cl)c3)=NO2)c1F (stereo not drawn) | > 64 | > 64 | 2 (≈ 4.99 µM) | > 64 | > 64 | > 64 | > 64
NC(=O)c1c(F)ccc(OCC2CC(c3ccco3)=NO2)c1F (stereo not drawn) | > 64 | > 64 | 64 (≈ 199 µM) | > 64 | > 64 | > 64 | > 64
Cc1ccc(C2CC(COc3ccc(F)c(C(N)=O)c3F)=NO2)cc1 (stereo not drawn) | 64 (≈ 185 µM) | > 64 | 16 (≈ 46.2 µM) | > 64 | > 64 | > 64 | > 64
NC(=O)c1c(F)ccc(OCC2CC(c3ccc(Cl)cc3Cl)=NO2)c1F (stereo not drawn) | 2 (≈ 4.99 µM) | 32 (≈ 79.8 µM) | 4 (≈ 9.97 µM) | > 64 | > 64 | 32 (≈ 79.8 µM) | 16 (≈ 39.9 µM)
NC(=O)c1c(F)ccc(OCC2CC(c3ccc(F)cc3)=NO2)c1F (stereo not drawn) | 32 (≈ 91.4 µM) | 64 (≈ 183 µM) | 8 (≈ 22.8 µM) | > 64 | > 64 | 64 (≈ 183 µM) | 64 (≈ 183 µM)
COc1cccc(C2CC(COc3ccc(F)c(C(N)=O)c3F)=NO2)c1 (stereo not drawn) | > 64 | > 64 | > 64 | > 64 | > 64 | > 64 | > 64
NC(=O)c1c(F)ccc(OCC2CC(c3ccc(Cl)cc3)=NO2)c1F (stereo not drawn) | 8 (≈ 21.8 µM) | 32 (≈ 87.3 µM) | 8 (≈ 21.8 µM) | > 64 | > 64 | 32 (≈ 87.3 µM) | 32 (≈ 87.3 µM)
Cc1cccc(C2=NOC(COc3ccc(F)c(C(N)=O)c3F)C2)c1 (stereo not drawn) | 8 (≈ 23.1 µM) | 64 (≈ 185 µM) | 16 (≈ 46.2 µM) | > 64 | > 64 | 16 (≈ 46.2 µM) | 32 (≈ 92.4 µM)
NC(=O)c1c(F)ccc(OCC2=NOC(c3ccc(Br)cc3)C2)c1F (stereo not drawn) | 32 (≈ 77.8 µM) | > 64 | 8 (≈ 19.5 µM) | > 64 | > 64 | 32 (≈ 77.8 µM) | > 64
NC(=O)c1c(F)ccc(OCC2CC(c3cccc(Cl)c3)=NO2)c1F (stereo not drawn) | 8 (≈ 21.8 µM) | 32 (≈ 87.3 µM) | 2 (≈ 5.45 µM) | > 64 | > 64 | 32 (≈ 87.3 µM) | 16 (≈ 43.6 µM)
CCCOc1ccc(C2=NOC(COc3ccc(F)c(C(N)=O)c3F)C2)cc1 (stereo not drawn) | 4 (≈ 10.2 µM) | > 64 | 4 (≈ 10.2 µM) | > 64 | > 64 | > 64 | > 64
NC(=O)c1c(F)ccc(OCC2CC(c3ccccc3Cl)=NO2)c1F (stereo not drawn) | 64 (≈ 175 µM) | > 64 | 16 (≈ 43.6 µM) | > 64 | > 64 | > 64 | > 64
NC(=O)c1c(F)ccc(OCC2=NOC(c3cccc(Cl)c3)C2)c1F (stereo not drawn) | > 64 | > 64 | 64 (≈ 175 µM) | > 64 | > 64 | > 64 | > 64
CN(C)c1ccc(C2=NOC(COc3ccc(F)c(C(N)=O)c3F)C2)cc1 (stereo not drawn) | 64 (≈ 170 µM) | > 64 | 16 (≈ 42.6 µM) | > 64 | > 64 | > 64 | > 64
NC(=O)c1c(F)ccc(OCC2=NOC(c3ccc(Cl)cc3)C2)c1F (stereo not drawn) | 16 (≈ 43.6 µM) | 64 (≈ 175 µM) | 4 (≈ 10.9 µM) | > 64 | > 64 | 32 (≈ 87.3 µM) | 64 (≈ 175 µM)
NC(=O)c1c(F)ccc(OCC2=NOC(c3ccccc3Cl)C2)c1F (stereo not drawn) | 32 (≈ 87.3 µM) | > 64 | 16 (≈ 43.6 µM) | > 64 | > 64 | > 64 | > 64
NC(=O)c1c(F)ccc(OCC2=NOC(c3ccc(F)cc3)C2)c1F (stereo not drawn) | 64 (≈ 183 µM) | > 64 | 16 (≈ 45.7 µM) | > 64 | > 64 | > 64 | > 64
CCCCc1ccc(C2CC(COc3ccc(F)c(C(N)=O)c3F)=NO2)cc1 (stereo not drawn) | 0.5 (≈ 1.29 µM) | 4 (≈ 10.3 µM) | ≤ 0.125 | > 64 | > 64 | 4 (≈ 10.3 µM) | 8 (≈ 20.6 µM)
CCCOc1ccc(C2CC(COc3ccc(F)c(C(N)=O)c3F)=NO2)cc1 (stereo not drawn) | 32 (≈ 82 µM) | > 64 | 8 (≈ 20.5 µM) | > 64 | > 64 | 64 (≈ 164 µM) | > 64
Cc1ccc(C2=NOC(COc3ccc(F)c(C(N)=O)c3F)C2)cc1 (stereo not drawn) | 16 (≈ 46.2 µM) | > 64 | 16 (≈ 46.2 µM) | > 64 | > 64 | 32 (≈ 92.4 µM) | 32 (≈ 92.4 µM)
CC(C)(C)c1ccc(C2CC(COc3ccc(F)c(C(N)=O)c3F)=NO2)cc1 (stereo not drawn) | 4 (≈ 10.3 µM) | 32 (≈ 82.4 µM) | 2 (≈ 5.15 µM) | > 64 | > 64 | 32 (≈ 82.4 µM) | 64 (≈ 165 µM)
CCOc1ccc(C2=NOC(COc3ccc(F)c(C(N)=O)c3F)C2)cc1 (stereo not drawn) | 16 (≈ 42.5 µM) | > 64 | 4 (≈ 10.6 µM) | > 64 | > 64 | 64 (≈ 170 µM) | 64 (≈ 170 µM)
NC(=O)c1c(F)ccc(OCC2=NOC(c3ccc(Cl)c(Cl)c3)C2)c1F (stereo not drawn) | > 64 | > 64 | 16 (≈ 39.9 µM) | > 64 | > 64 | > 64 | > 64
